Results as given in patent publication US20240366582A1, “TREATMENT OF RAYNAUD'S DISEASE” (Aisa Pharma, Inc., priority 2020, published 2024).

Columns and labels:
[1] = test system: Raynaud's Phenomenon (RP) attacks in participants with SSc-RP; experiment: Average duration of weekly RP attacks (symptomatic / all attacks), patient diary, Phase 2a Part A; assay type: in vivo, human; settings: for Average Duration of Weekly RP Attacks (All Attacks), Baseline, Mean / Average Duration of Weekly RP Attacks (All Attacks), Baseline, Median / Average Duration of Weekly RP Attacks (All Attacks), Average Duration, Mean / Average Duration of Weekly RP Attacks (All Attacks), Average Duration, Median: ITT Population-Part A; for Average Duration of Weekly RP Attacks (All Attacks), Baseline, Mean / Average Duration of Weekly RP Attacks (All Attacks), Baseline, Median: last 7 days of screening period, before dosing; for Average Duration of Weekly RP Attacks (All Attacks), Average Duration, Mean / Average Duration of Weekly RP Attacks (All Attacks), Average Duration, Median: last 7 days of the dosing period
Description: (§1) The Sponsor-developed participant-informed E-Diary has been and will be used in this study to record data. Participants have been or will be required to keep and fill the E-Diary daily as delineated in the SoAs ((FIG. 2 and FIG. 3A and/or FIG. 3B). • The relevant metrics measured by this tool daily are: • Study medication • SSc-RP symptoms (Reporting an attack including duration of attack) • Severity of the attack considering all symptoms of the attack e.g. tingling, numbness, pain, color changes (VAS 0-10 cm scale) • Participant's location at the time of the attack (inside home/outside home) • Selecting symptoms experienced during the attack (tingling, numbness, pain, color changes, other) • Pain rating during the attack (11-point Likert scale) • The RCS based on how much difficulty participants had with Raynaud's today, how many attacks the participant had, and how long they lasted. Participants will also be asked to consider how much pain, numbness, or other symptoms the Raynaud's caused in fingers (including painful sores), and how much the Raynaud's alone affected the use of hands today (VAS 0-10 cm scale). • The relevant metrics measured by this tool at the in-clinic visit (once in a Dosing Period) are: • Digital ulcer severity (VAS 0-10 cm scale)—Applicable only if participant has digital ulcers. • Scleroderma Health Assessment Questionnaire which includes Raynaud's VAS measuring participant quality of life over the past • Note: Digital ulcer severity (VAS 0-10 cm scale) and SHAQ scale can also be done on paper in-clinic, if necessary. Also, external temperature will be a feed into the E-Diary database based on participant's location.
The absolute change in average duration of weekly RP attacks from baseline to the end of each dosing period was and will be a secondary outcome variable. The sponsor-developed participant-informed diary was and will be used to record data. Average duration of weekly RP attacks is defined as the total duration of RP attacks divided by total number of RP attacks within the last 7 days of each dosing period. Total duration of RP attacks during the last 7 days of screening period divided by the total number of RP attacks will be used as baseline for the analysis of all periods. The variable will be calculated similar to frequency data as before.
The following data was actually obtained in accordance with the protocol and plan delineated in Examples 1 and 2. The accompanying data involved 11 patients out of the planned 76 patient study. The study was done in patients with scleroderma (systemic sclerosis) who had relatively frequent Raynaud symptoms as they needed to average at least one attack per day during a screening period of up to two weeks. In this first phase of this double-blind placebo-controlled, prospective randomized study, patients were treated in parallel and after meeting study criteria were randomized to receive either placebo, cilnidipine 10 mg daily, cilnidipine 20 mg daily, tadalafil 5 mg daily, cilnidipine 10 mg plus 5 mg of tadalafil, or cilnidipine 20 mg plus 5 mg of tadalafil.

[2] = in vivo; cited from earlier work
Nav 1.7 sodium channel = Nav 1.7 sodium channel (Homo sapiens, UniProt Q15858); settings: see WO 2021/178903; cited from earlier work
Nav 1.7 sodium channel, sequence (Q15858 whole entry): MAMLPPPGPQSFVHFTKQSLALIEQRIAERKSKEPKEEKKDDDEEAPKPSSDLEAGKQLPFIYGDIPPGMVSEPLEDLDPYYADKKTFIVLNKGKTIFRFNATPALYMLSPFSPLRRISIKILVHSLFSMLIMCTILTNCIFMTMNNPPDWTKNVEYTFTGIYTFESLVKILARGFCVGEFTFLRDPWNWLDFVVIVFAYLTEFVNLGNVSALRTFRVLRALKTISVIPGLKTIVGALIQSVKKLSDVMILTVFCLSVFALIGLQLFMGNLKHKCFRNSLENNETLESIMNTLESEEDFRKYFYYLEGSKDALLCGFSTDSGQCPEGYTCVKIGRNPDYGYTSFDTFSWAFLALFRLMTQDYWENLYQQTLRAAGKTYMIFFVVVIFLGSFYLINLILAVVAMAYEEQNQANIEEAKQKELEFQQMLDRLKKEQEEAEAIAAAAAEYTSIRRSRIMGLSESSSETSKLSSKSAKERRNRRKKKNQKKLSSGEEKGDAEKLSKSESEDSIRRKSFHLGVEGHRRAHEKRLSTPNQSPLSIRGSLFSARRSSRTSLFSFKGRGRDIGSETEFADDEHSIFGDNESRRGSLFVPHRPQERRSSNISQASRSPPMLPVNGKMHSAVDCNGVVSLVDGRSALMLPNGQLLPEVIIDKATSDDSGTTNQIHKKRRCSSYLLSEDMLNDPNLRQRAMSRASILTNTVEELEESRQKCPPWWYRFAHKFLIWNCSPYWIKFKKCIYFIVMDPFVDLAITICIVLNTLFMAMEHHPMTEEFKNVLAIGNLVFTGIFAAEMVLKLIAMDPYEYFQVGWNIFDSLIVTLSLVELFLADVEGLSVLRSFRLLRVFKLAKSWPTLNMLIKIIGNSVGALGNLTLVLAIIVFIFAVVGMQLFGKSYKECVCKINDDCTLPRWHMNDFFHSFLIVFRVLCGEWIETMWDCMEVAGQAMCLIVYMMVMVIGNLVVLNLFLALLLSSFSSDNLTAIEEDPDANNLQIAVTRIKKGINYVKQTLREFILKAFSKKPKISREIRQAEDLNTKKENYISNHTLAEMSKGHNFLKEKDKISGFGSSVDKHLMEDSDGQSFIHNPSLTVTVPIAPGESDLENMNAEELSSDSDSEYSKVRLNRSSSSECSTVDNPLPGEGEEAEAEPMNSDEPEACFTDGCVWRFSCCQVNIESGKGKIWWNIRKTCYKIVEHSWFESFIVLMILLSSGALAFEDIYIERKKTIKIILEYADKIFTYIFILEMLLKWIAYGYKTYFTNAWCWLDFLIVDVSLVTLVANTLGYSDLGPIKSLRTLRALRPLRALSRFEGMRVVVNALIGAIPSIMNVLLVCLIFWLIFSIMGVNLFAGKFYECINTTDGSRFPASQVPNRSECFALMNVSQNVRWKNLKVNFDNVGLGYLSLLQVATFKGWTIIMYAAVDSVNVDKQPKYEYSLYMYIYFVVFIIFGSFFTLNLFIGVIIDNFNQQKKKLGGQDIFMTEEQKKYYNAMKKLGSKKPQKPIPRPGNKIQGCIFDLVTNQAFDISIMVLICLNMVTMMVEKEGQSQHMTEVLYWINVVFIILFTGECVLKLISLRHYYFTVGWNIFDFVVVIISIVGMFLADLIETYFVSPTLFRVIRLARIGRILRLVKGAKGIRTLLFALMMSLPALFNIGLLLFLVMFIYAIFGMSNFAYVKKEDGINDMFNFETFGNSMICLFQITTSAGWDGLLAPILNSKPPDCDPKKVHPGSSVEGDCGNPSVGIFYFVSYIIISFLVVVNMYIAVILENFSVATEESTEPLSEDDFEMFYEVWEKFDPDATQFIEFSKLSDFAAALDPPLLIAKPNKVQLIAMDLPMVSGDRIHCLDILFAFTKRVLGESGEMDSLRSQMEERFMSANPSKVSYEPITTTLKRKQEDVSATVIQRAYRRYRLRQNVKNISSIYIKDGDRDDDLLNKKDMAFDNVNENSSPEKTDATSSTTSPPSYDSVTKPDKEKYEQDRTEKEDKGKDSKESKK

[3] = test system: Raynaud's Phenomenon (RP) attacks in participants with SSc-RP; experiment: Average severity of weekly RP attacks (VAS 0-10; symptomatic / all attacks), patient diary, Phase 2a Part A; assay type: in vivo, human; settings: for Average Severity of Weekly Symptomatic RP Attacks, Mean: Pooled Cilnidipine 20 mg and Cilnidipine 20 mg + Tadalafil 5 mg, severity (0-10), ITT Population - Part A
Description: as §1
The absolute change in average severity of weekly RP attacks (VAS 0-10 cm scale) from baseline to the end of each Dosing Period was and will be a secondary outcome variable. The sponsor-developed participant-informed diary will be used to record data. […] The variable will be calculated similar to frequency data as before. […]

[4] = test system: Raynaud's Phenomenon (RP) attacks in participants with SSc-RP; experiment: Frequency of weekly RP attacks (symptomatic attacks / all attacks), patient diary, Phase 2a Part A; assay type: in vivo, human
Protocol: A randomized, placebo-controlled phase 2a study was performed and is in progress to assess the safety and efficacy of cilnidipine (10 mg and 20 mg) alone and in combination with 5 mg tadalafil, in participants with diagnosis of secondary Raynaud's disease.
Part A-Double-blind, Placebo-controlled, Parallel-group, Dose selection, will assess the safety and efficacy of two doses of cilnidipine (10 mg and 20 mg), alone and in combination with tadalafil. A total of 36 participants will be randomized to one of six pre-specified treatment arms. See Example 3 for data obtained in this phase of the study thus far, on 11 participants.
The Sponsor-developed participant-informed E-Diary has been and will be used in this study to record data. […]

[5] = by Baseline RCS, first subgroup (RCS category not given)
[6] = by Baseline RCS, second subgroup (r96-r180, RCS category not given)

Row | SMILES | Average Duration of Weekly RP Attacks (All Attacks), Baseline, Mean ([1]; Excluding Outliers) [min] | Average Duration of Weekly RP Attacks (All Attacks), Baseline, Median ([1]; Excluding Outliers) [min] | Average Duration of Weekly RP Attacks (All Attacks), Baseline, Mean [1] [min] | Average Duration of Weekly RP Attacks (All Attacks), Baseline, Median [1] [min] | Average Duration of Weekly RP Attacks (All Attacks), Baseline, Mean [1, 5] [min] | Average Duration of Weekly RP Attacks (All Attacks), Baseline, Median [1, 5] [min] | other results
1 | COCCOC(=O)C1=C(C)NC(C)=C(C(=O)OC/C=C/c2ccccc2)C1c1cccc([N+](=O)[O-])c1 (stereo not drawn) [Cilnidipine 20 mg] | 17.81 | 17.81 | 17.81 | 17.81 | 17.81 | 17.81 | 
2 | CCOC(=O)C1=C(COCCN)NC(C)=C(C(=O)OC)C1c1ccccc1Cl (stereo not drawn) [amlodipine] |  |  |  |  |  |  | time to reach maximal plasma concentrations [2]: 10 h
3 | COCCOC(=O)C1=C(C)NC(C)=C(C(=O)OC/C=C/c2ccccc2)C1c1cccc([N+](=O)[O-])c1 (stereo not drawn) [Cilnidipine 10 mg] | 40.00 | 40.00 | 40.00 | 40.00 | 40.00 | 40.00 | 
4 | CN1CC(=O)N2[C@H](c3ccc4c(c3)OCO4)c3[nH]c4ccccc4c3C[C@@H]2C1=O [Tadalafil 5 mg] | 10.92 | 10.92 |  |  |  |  | Average Duration of Weekly RP Attacks (All Attacks), Baseline, Mean [1, 6]: 320.46 min; Average Duration of Weekly RP Attacks (All Attacks), Baseline, Median [1, 6]: 320.46 min
5 | COCCOC(=O)C1=C(C)NC(C)=C(C(=O)OC/C=C/c2ccccc2)C1c1cccc([N+](=O)[O-])c1 (stereo not drawn) [Pooled Cilnidipine] | 25.21 | 25.00 |  |  | 25.21 | 25.00 | Average Duration of Weekly RP Attacks (All Attacks), Average Duration, Mean ([1]; Excluding Outliers): 21.66 min; Average Duration of Weekly RP Attacks (All Attacks), Average Duration, Median ([1]; Excluding Outliers): 30.45 min; Average Duration of Weekly RP Attacks (All Attacks), Average Duration, Mean [1, 5]: 21.66 min; Average Duration of Weekly RP Attacks (All Attacks), Average Duration, Median [1, 5]: 30.45 min
6 | COCCOC(=O)C1=C(C)NC(C)=C(C(=O)OC/C=C/c2ccccc2)C1c1cccc([N+](=O)[O-])c1 (stereo not drawn) [Cilnidipine, cilnidipine, reference compound] |  |  |  |  |  |  | activity against the Nav 1.7 sodium channel (Nav 1.7 sodium channel): has activity; Average Severity of Weekly Symptomatic RP Attacks, Mean ([3]; Excluding Outliers): 3.40; Average Severity of Weekly Symptomatic RP Attacks, Mean [3]: 3.40; change in severity of attacks (in words) ([3]; cilnidipine monotherapy (n=3), cilnidipine plus tadalafil (n=4) vs tadalafil monotherapy (n=2)): 20 mg reducing severity more than 10 mg; change in duration of Raynaud attacks (in words) ([1]; cilnidipine or cilnidipine plus tadalafil (n=7), tadalafil monotherapy (n=2)): decrease greater than that seen in placebo treated patients; patients in whom average frequency of Raynaud's attacks decreased more than 25% ([4]; all cilnidipine and cilnidipine plus tadalafil treated patients together (n=7)): 6 of 7; change in weekly frequency of Raynaud attacks (in words) ([4]; cilnidipine and cilnidipine plus tadalafil treated patients (n=7), tadalafil alone, milder and more severe disease): decrease; Tmax (time to achieve maximal plasma concentrations) [2]: 2 h
